PubChem BioAssay AID2060901 (Molecular Pharmacology Branch, DTP, NCI, 2025)
pIC50: −log10 of the molar value.

Tested on: 422866-222-R5-J1-PDC complex spheroids viability
Assay: Anticancer human tumor 422866-222-R5-J1-PDC patient-derived pancreatic adenocarcinoma cell line growth inhibition [RAS]
Conditions: for pIC50: curve of first compound; for viability, T/C: stronger effect = lower value
Summary of the method: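 Multi-cell-type spheroids: tumor cells plus HUVEC endothelial cells and mesenchymal stem cells. RAS-pathway inhibitors were combined with targeted agents, each dosed in half-log steps down from clinical Cmax, or from 10 microM when Cmax was unknown.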
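Also: spheroids exposed to compounds for 7 days.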
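For viability, T/C in this document: 100% = DMSO vehicle control viability.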

Structure (SMILES): C=CC(=O)N1CCN(c2nc(OCC3CCCN3C)nc3c(F)c(-c4nc(N)cc(C)c4C(F)(F)F)c(Cl)cc23)C(C)C1 (centres undefined) + CCn1c(-c2cc(N3CCN(C)CC3)cnc2C(C)OC)c2c3cc(ccc31)-c1csc(n1)CC(NC(=O)C1CC1C)C(=O)N1CCCC(N1)C(=O)OCC(C)(C)C2
- pIC50 (second compound 0.000949 µM): > 8.50
- pIC50 (second compound 0.003 µM): > 8.50
- pIC50 (second compound 0.00949 µM): > 8.50
- pIC50 (second compound 0.03 µM): > 8.50
- pIC50 (second compound 0.0949 µM): > 8.50
- pIC50 (second compound 0.3 µM): > 8.50
- viability, T/C (second compound 0.000949 µM, first compound 0.00316 µM): 19.5%
- viability, T/C (second compound 0.000949 µM, first compound 0.01 µM): 18.6%
- viability, T/C (second compound 0.000949 µM, first compound 0.0316 µM): 16.9%
- viability, T/C (second compound 0.000949 µM, first compound 0.1 µM): 18.5%
- viability, T/C (second compound 0.000949 µM, first compound 0.316 µM): 15.8%
- viability, T/C (second compound 0.000949 µM, first compound 1 µM): 20.3%
- viability, T/C (second compound 0.003 µM, first compound 0.00316 µM): 19.6%
- viability, T/C (second compound 0.003 µM, first compound 0.01 µM): 15%
- viability, T/C (second compound 0.003 µM, first compound 0.0316 µM): 19.8%
- viability, T/C (second compound 0.003 µM, first compound 0.1 µM): 18.2%
- viability, T/C (second compound 0.003 µM, first compound 0.316 µM): 17.9%
- viability, T/C (second compound 0.003 µM, first compound 1 µM): 20.6%
- viability, T/C (second compound 0.00949 µM, first compound 0.00316 µM): 18.3%
- viability, T/C (second compound 0.00949 µM, first compound 0.01 µM): 19.1%
- viability, T/C (second compound 0.00949 µM, first compound 0.0316 µM): 17.4%
- viability, T/C (second compound 0.00949 µM, first compound 0.1 µM): 14.8%
- viability, T/C (second compound 0.00949 µM, first compound 0.316 µM): 17.7%
- viability, T/C (second compound 0.00949 µM, first compound 1 µM): 18%
- viability, T/C (second compound 0.03 µM, first compound 0.00316 µM): 17.1%
- viability, T/C (second compound 0.03 µM, first compound 0.01 µM): 15.9%
- viability, T/C (second compound 0.03 µM, first compound 0.0316 µM): 15.7%
- viability, T/C (second compound 0.03 µM, first compound 0.1 µM): 17.9%
- viability, T/C (second compound 0.03 µM, first compound 0.316 µM): 18.2%
- viability, T/C (second compound 0.03 µM, first compound 1 µM): 22.9%
- viability, T/C (second compound 0.0949 µM, first compound 0.00316 µM): 19.4%
- viability, T/C (second compound 0.0949 µM, first compound 0.01 µM): 16.9%
- viability, T/C (second compound 0.0949 µM, first compound 0.0316 µM): 15.9%
- viability, T/C (second compound 0.0949 µM, first compound 0.1 µM): 19%
- viability, T/C (second compound 0.0949 µM, first compound 0.316 µM): 21.3%
- viability, T/C (second compound 0.0949 µM, first compound 1 µM): 21.5%
- viability, T/C (second compound 0.3 µM, first compound 0.00316 µM): 19.5%
- viability, T/C (second compound 0.3 µM, first compound 0.01 µM): 22.9%
- viability, T/C (second compound 0.3 µM, first compound 0.0316 µM): 21.7%
- viability, T/C (second compound 0.3 µM, first compound 0.1 µM): 20.2%
- viability, T/C (second compound 0.3 µM, first compound 0.316 µM): 19.5%
- viability, T/C (second compound 0.3 µM, first compound 1 µM): 24.9%

Structure (SMILES): CC1(C)CCC(Nc2ncc(C(F)(F)F)c(-c3c[nH]c4c(P(C)(C)=O)c(C#N)ccc34)n2)CN1 (centres undefined) + CCn1c(-c2cc(N3CCN(C)CC3)cnc2C(C)OC)c2c3cc(ccc31)-c1csc(n1)CC(NC(=O)C1CC1C)C(=O)N1CCCC(N1)C(=O)OCC(C)(C)C2
- pIC50 (second compound 0.000949 µM): > 9.02
- pIC50 (second compound 0.003 µM): > 9.02
- pIC50 (second compound 0.00949 µM): > 9.02
- pIC50 (second compound 0.03 µM): > 9.02
- pIC50 (second compound 0.0949 µM): > 9.02
- pIC50 (second compound 0.3 µM): > 9.02
- viability, T/C (second compound 0.000949 µM, first compound 0.000949 µM): 30.6%
- viability, T/C (second compound 0.000949 µM, first compound 0.003 µM): 29.6%
- viability, T/C (second compound 0.000949 µM, first compound 0.00949 µM): 32.5%
- viability, T/C (second compound 0.000949 µM, first compound 0.03 µM): 31.7%
- viability, T/C (second compound 0.000949 µM, first compound 0.0949 µM): 30%
- viability, T/C (second compound 0.000949 µM, first compound 0.3 µM): 33.4%
- viability, T/C (second compound 0.003 µM, first compound 0.000949 µM): 24.3%
- viability, T/C (second compound 0.003 µM, first compound 0.003 µM): 24%
- viability, T/C (second compound 0.003 µM, first compound 0.00949 µM): 27.2%
- viability, T/C (second compound 0.003 µM, first compound 0.03 µM): 27.5%
- viability, T/C (second compound 0.003 µM, first compound 0.0949 µM): 26.9%
- viability, T/C (second compound 0.003 µM, first compound 0.3 µM): 31.3%
- viability, T/C (second compound 0.00949 µM, first compound 0.000949 µM): 21.2%
- viability, T/C (second compound 0.00949 µM, first compound 0.003 µM): 21.1%
- viability, T/C (second compound 0.00949 µM, first compound 0.00949 µM): 23.1%
- viability, T/C (second compound 0.00949 µM, first compound 0.03 µM): 21.6%
- viability, T/C (second compound 0.00949 µM, first compound 0.0949 µM): 25.4%
- viability, T/C (second compound 0.00949 µM, first compound 0.3 µM): 24.8%
- viability, T/C (second compound 0.03 µM, first compound 0.000949 µM): 22.2%
- viability, T/C (second compound 0.03 µM, first compound 0.003 µM): 21.2%
- viability, T/C (second compound 0.03 µM, first compound 0.00949 µM): 25.4%
- viability, T/C (second compound 0.03 µM, first compound 0.03 µM): 23.5%
- viability, T/C (second compound 0.03 µM, first compound 0.0949 µM): 25%
- viability, T/C (second compound 0.03 µM, first compound 0.3 µM): 22.8%
- viability, T/C (second compound 0.0949 µM, first compound 0.000949 µM): 19.1%
- viability, T/C (second compound 0.0949 µM, first compound 0.003 µM): 22.9%
- viability, T/C (second compound 0.0949 µM, first compound 0.00949 µM): 24.6%
- viability, T/C (second compound 0.0949 µM, first compound 0.03 µM): 20.7%
- viability, T/C (second compound 0.0949 µM, first compound 0.0949 µM): 23.1%
- viability, T/C (second compound 0.0949 µM, first compound 0.3 µM): 28.9%
- viability, T/C (second compound 0.3 µM, first compound 0.000949 µM): 19.7%
- viability, T/C (second compound 0.3 µM, first compound 0.003 µM): 22.6%
- viability, T/C (second compound 0.3 µM, first compound 0.00949 µM): 26.8%
- viability, T/C (second compound 0.3 µM, first compound 0.03 µM): 24.1%
- viability, T/C (second compound 0.3 µM, first compound 0.0949 µM): 28.1%
- viability, T/C (second compound 0.3 µM, first compound 0.3 µM): 28.1%
